# Results published in US20240360165A1, “INHIBITORS OF CYCLIN DEPENDENT KINASE 7 (CDK7)” (Syros Pharmaceuticals, Inc., priority 2016, published 2024).
# Where two headings read alike, the source gives them in different places.
# Legend:
# [1] = target: CDK7/Cyclin H/MAT1 complex (Homo sapiens, UniProt P50613); test: CDK7 inhibition assay (Caliper/LabChip EZ Reader kinase assay); assay type: biochemical; settings: Table 1, CDK7/Cyclin H/MAT1 6 nM, ATP 2 mM, 35 min at 27° C.
# Procedure, shortened: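 A Perkin Elmer Caliper/LabChip EZ Reader (Waltham, MA) platform served as the basis for this CDK7 kinase inhibition assay. The work was carried out by Biortus Biosciences, located in Jiangyin, Jiangsu Province, P.R. of China. Each CDK studied had its own kinase assay, and compounds were evaluated for their ability to block CDK7 activity.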
# CDK9/Cyclin T1 complex = CDK9/Cyclin T1 complex (Homo sapiens, UniProt P50750); test: CDK9 inhibition assay (Caliper/LabChip EZ Reader kinase assay); assay type: biochemical; settings: Table 1, CDK9/Cyclin T1 8 nM, ATP 2 mM, 15 min at 27° C.
# Chain of CDK9/Cyclin T1 complex (P50750 whole entry, species assumed): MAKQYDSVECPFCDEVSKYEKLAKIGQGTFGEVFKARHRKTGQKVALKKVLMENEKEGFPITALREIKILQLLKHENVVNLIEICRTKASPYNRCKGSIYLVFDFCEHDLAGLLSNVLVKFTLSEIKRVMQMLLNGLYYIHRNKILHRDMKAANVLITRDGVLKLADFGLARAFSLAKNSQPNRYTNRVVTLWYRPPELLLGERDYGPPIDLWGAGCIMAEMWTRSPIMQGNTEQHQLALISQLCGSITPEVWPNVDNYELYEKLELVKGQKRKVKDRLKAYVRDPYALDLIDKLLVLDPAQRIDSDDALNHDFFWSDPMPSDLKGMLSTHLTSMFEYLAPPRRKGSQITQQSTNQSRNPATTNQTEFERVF
# Chain of CDK9/Cyclin T1 complex (O60563 whole entry partner, species assumed): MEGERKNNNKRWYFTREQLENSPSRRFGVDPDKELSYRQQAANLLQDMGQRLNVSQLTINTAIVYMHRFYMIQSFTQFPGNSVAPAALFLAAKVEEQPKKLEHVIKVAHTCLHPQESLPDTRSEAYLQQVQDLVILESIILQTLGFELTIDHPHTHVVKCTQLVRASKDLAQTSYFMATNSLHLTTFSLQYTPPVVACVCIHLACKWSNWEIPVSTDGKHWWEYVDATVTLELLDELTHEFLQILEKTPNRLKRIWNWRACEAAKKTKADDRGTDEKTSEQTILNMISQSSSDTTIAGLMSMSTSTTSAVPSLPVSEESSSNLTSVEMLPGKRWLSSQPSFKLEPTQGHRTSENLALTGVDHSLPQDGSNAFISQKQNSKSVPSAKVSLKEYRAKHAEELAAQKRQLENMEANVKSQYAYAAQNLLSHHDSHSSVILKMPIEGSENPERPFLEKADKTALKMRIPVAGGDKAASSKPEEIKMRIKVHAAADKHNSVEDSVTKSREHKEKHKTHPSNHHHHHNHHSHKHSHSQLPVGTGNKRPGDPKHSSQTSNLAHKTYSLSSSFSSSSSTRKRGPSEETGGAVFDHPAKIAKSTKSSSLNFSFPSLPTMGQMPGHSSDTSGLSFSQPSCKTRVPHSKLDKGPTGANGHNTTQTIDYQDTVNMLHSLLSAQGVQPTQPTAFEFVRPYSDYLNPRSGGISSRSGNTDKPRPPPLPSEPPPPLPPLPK
# Procedure, shortened: (§1)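 Activity read as fluorescent peptide conversion on a LabChip EZ Reader. For CDK2/Cyclin E1 (0.5 nM), substrate was 5-FAM-CDK7tide (2 μM) with 2 mM MgCl2; for CDK9/Cyclin T1 (8 nM), 5-FAM-CDK9tide (2 μM) with 10 mM MgCl2.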
# [2] = target: T1, CDK12 (aa686-1082)/Cyclin K complex (Homo sapiens, UniProt Q9NYV4); test: CDK12 inhibition assay (Caliper/LabChip EZ Reader kinase assay); assay type: biochemical; settings: Table 1, CDK12 (aa686-1082)/Cyclin K 50 nM, ATP 2 mM, 3 hr at 27° C.
# T1 construct: CDK12 (aa686-1082)/Cyclin K complex
# T1 sequence (Q9NYV4 686-1082, species assumed): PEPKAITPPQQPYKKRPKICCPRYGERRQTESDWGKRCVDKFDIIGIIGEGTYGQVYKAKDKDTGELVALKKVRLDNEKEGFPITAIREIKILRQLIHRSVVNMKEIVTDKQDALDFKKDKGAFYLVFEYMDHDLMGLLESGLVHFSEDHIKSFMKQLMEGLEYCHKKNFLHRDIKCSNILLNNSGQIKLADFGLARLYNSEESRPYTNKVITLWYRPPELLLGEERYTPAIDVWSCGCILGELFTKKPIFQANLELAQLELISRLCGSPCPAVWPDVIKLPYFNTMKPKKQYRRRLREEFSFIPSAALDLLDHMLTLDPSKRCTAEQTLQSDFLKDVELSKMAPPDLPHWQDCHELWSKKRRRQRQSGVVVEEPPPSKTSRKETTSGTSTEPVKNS
# T1 sequence (O75909 whole entry partner, species assumed, the tested form may be a part): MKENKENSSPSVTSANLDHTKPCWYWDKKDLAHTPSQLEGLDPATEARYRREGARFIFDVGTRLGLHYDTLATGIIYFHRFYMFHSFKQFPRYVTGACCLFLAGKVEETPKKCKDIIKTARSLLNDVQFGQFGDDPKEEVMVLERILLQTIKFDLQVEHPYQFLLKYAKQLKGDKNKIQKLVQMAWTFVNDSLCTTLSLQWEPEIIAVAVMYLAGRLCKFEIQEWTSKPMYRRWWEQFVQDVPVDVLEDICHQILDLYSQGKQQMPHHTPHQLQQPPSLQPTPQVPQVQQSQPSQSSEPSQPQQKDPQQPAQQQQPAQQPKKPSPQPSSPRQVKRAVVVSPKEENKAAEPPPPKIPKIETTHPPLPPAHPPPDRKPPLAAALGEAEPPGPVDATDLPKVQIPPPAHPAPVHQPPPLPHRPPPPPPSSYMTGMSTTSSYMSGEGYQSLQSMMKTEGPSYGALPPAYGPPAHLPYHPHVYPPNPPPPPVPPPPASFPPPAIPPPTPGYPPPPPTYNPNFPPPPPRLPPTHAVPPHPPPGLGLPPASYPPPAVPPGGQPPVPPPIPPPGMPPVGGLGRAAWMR
# CDK2/Cyclin E1 complex = CDK2/Cyclin E1 complex (Homo sapiens, UniProt P24941); test: CDK2 inhibition assay (Caliper/LabChip EZ Reader kinase assay); assay type: biochemical; settings: Table 1, CDK2/Cyclin E1 0.5 nM, ATP 2 mM, 35 min at 27° C.
# Procedure, shortened: as §1
# A673 cells = test: Inhibition of proliferation of A673 cells (CyQUANT, 72 hour); assay type: cell-based, human; settings: A673 cells, 72 hour, CyQUANT; read-out: Inhibition of Proliferation of A673 Cells (calculated IC50)
# Procedure, shortened: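 Proliferation read-out by CyQUANT after a 72 h exposure, compounds spanning 4 μM–[…] in half-log steps. A673 cells cultured at 37° C under 5% CO2 in DMEM supplemented with 10% FBS plus 1 mM sodium pyruvate.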
# HCC70 cells = test: Inhibition of proliferation of HCC70 cells (CyQUANT Direct Cell Proliferation Assay, 72 hour); assay type: cell-based, human
# Procedure, shortened: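 Human triple-negative breast cancer HCC70 cells cultured at 37° C, 5% CO2, with compound for 72 hour. Anti-proliferative effect read by CyQUANT Direct Cell Proliferation Assay. Dinaciclib, a CDK inhibitor analog and triptolide served as positive controls.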
# [3] = Homo sapiens, HCC70, 72 h, read-out: Inhibition of Proliferation of HCC70 Cells (calculated IC50)
# Chain of CDK7/Cyclin H/MAT1 complex (P50613 whole entry, species assumed): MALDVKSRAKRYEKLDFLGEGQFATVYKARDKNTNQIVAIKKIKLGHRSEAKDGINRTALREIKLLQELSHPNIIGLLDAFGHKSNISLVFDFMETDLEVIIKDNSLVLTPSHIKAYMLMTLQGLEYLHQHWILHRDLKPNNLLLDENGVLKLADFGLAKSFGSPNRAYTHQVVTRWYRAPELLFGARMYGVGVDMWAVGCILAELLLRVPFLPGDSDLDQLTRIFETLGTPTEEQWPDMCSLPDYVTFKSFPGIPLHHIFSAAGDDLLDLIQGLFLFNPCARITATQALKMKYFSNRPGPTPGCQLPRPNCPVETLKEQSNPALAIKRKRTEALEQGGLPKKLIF
# Chain of CDK7/Cyclin H/MAT1 complex (P51946 whole entry partner, species assumed): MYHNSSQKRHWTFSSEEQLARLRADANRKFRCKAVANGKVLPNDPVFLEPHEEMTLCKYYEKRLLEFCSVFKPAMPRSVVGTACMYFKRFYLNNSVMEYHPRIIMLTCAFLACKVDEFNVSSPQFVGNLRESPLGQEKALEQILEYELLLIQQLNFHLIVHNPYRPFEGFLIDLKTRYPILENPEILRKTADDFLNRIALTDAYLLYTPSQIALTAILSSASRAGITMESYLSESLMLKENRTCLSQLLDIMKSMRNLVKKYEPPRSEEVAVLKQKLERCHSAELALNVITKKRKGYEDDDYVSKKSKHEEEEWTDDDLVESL
# Chain of CDK7/Cyclin H/MAT1 complex (P51948 whole entry partner, species assumed): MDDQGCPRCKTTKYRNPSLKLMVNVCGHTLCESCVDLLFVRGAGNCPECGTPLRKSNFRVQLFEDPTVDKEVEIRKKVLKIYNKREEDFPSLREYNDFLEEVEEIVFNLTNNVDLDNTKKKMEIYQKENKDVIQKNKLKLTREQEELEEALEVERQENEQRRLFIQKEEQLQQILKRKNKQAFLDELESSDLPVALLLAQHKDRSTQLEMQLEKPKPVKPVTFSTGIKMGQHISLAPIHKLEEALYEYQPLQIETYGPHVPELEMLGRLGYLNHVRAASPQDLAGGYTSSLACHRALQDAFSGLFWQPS
IC50 [1],IC50 (CDK9/Cyclin T1 complex),IC50 [2],IC50 (CDK2/Cyclin E1 complex),SMILES,IC50 (A673 cells),IC50 (HCC70 cells; [3]),also measured
200 to 5000 nM,> 5000 nM,> 5000 nM,> 5000 nM,"FC(F)(F)c1cnc(N[C@H]2CCCNC2)nc1-c1c[nH]c2cc(-c3cccc(Oc4ccccc4)c3)ccc12 [Compound 341, 4-[6-(3-phenoxyphenyl)-1H-indol-3-yl]-N-[(3S)-3-piperidyl]-5 (trifluoromethyl) pyrimidin-2-amine]",< 20 nM,1000 to 5000 nM,"IC50 ([1]; listed as 141): < 20 nM; IC50 (CDK9/Cyclin T1 complex; listed as 141): 200 to 5000 nM; IC50 ([2]; listed as 141): 200 to 5000 nM; IC50 (CDK2/Cyclin E1 complex; listed as 141): 200 to 5000 nM; IC50 (HCC70 cells; listed as 141, read-out: Inhibition of Proliferation of HCC70 Cells (calculated IC50)): < 100 nM"
20 to 200 nM,> 5000 nM,> 5000 nM,> 5000 nM,"O=S1(=O)CCn2cc(-c3nc(N[C@H]4CCCNC4)ncc3C(F)(F)F)c3cccc1c32 [Compound 348, (S)-6-(2-(piperidin-3-ylamino)-5-(trifluoromethyl)pyrimidin-4-yl)-2,3-dihydro-[1,4]thiazino[2,3,4-hi]indole 1,1-dioxide]",20 to 200 nM,100 to 1000 nM,IC50 ([1]; listed as 117): 20 to 200 nM; IC50 (CDK9/Cyclin T1 complex; listed as 117): 200 to 5000 nM; IC50 ([2]; listed as 117): 200 to 5000 nM; IC50 (CDK2/Cyclin E1 complex; listed as 117): 200 to 5000 nM
20 to 200 nM,> 5000 nM,> 5000 nM,> 5000 nM,"CCN1C[C@@H](Nc2ncc(C(F)(F)F)c(-c3c[nH]c4cc(S(C)(=O)=O)ccc34)n2)CC(C)(C)C1 [Compound 369, N-[(3S)-1-ethyl-5,5-dimethyl-3-piperidyl]-4-(6-methylsulfonyl-1H-indol-3-yl)-5-(trifluoromethyl)pyrimidin-2-amine]",20 to 200 nM,100 to 1000 nM,IC50 ([1]; listed as 129): 20 to 200 nM; IC50 ([2]; listed as 129): 200 to 5000 nM
20 to 200 nM,> 5000 nM,200 to 5000 nM,> 5000 nM,"N#Cc1ccc2c(-c3nc(N[C@@H]4CNC[C@H](O)C4)ncc3C(F)(F)F)c[nH]c2c1 [Compound 370, 3-[2-[[(3S,5R)-5-hydroxy-3-piperidyl]amino]-5-(trifluoromethyl)pyrimidin-4-yl]-1H-indole-6-carbonitrile]",200 to 5000 nM,100 to 1000 nM,IC50 ([1]; listed as 130): > 5000 nM; IC50 ([2]; listed as 130): > 5000 nM

# The remaining lines, values behind:
SMILES,IC50 [1],IC50 (CDK9/Cyclin T1 complex),IC50 [2],IC50 (CDK2/Cyclin E1 complex),IC50 (A673 cells),IC50 (HCC70 cells; [3]),also measured
"N#C[C@H]1CCN(C(=O)c2ccc3c(-c4nc(N[C@H]5CCCNC5)ncc4C(F)(F)F)c[nH]c3c2)C1 [Compound 293, (3S)-1-[3-[2-[[(3S)-3-piperidyl]amino]-5-(trifluoromethyl)pyrimidin-4-yl]-1H-indole-6-carbonyl] pyrrolidine-3-carbonitrile]",< 20 nM,200 to 5000 nM,200 to 5000 nM,200 to 5000 nM,200 to 5000 nM,100 to 1000 nM,IC50 ([1]; listed as 108): 20 to 200 nM; IC50 (CDK9/Cyclin T1 complex; listed as 108): 200 to 5000 nM; IC50 ([2]; listed as 108): 200 to 5000 nM; IC50 (CDK2/Cyclin E1 complex; listed as 108): 200 to 5000 nM
"CS(=O)(=O)c1c(C#N)ccc2c(-c3nc(N[C@H]4CCCNC4)ncc3Cl)c[nH]c12 [Compound 294, 3-[5-chloro-2-[[(3S)-3-piperidyl]amino]pyrimidin-4-yl]-7-methylsulfonyl-1H-indole-6-carbonitrile]",< 20 nM,200 to 5000 nM,200 to 5000 nM,200 to 5000 nM,20 to 200 nM,< 100 nM,"IC50 ([1]; listed as 109): < 20 nM; IC50 (CDK9/Cyclin T1 complex; listed as 109): 200 to 5000 nM; IC50 ([2]; listed as 109): 20 to 200 nM; IC50 (CDK2/Cyclin E1 complex; listed as 109): 200 to 5000 nM; IC50 (HCC70 cells; listed as 109, read-out: Inhibition of Proliferation of HCC70 Cells (calculated IC50)): 100 to 1000 nM"
"Cn1ccc(-c2ccc3c(-c4nc(N[C@H]5CCCNC5)ncc4C(F)(F)F)c[nH]c3c2)n1 [Compound 303, 4-[6-(1-methylpyrazol-3-yl)-1H-indol-3-yl]-N-[(3S)-3-piperidyl]-5-(trifluoromethyl) pyrimidin-2-amine]",< 20 nM,200 to 5000 nM,200 to 5000 nM,200 to 5000 nM,200 to 5000 nM,100 to 1000 nM,IC50 ([1]; listed as 113): 20 to 200 nM; IC50 (CDK9/Cyclin T1 complex; listed as 113): > 5000 nM; IC50 ([2]; listed as 113): 200 to 5000 nM; IC50 (CDK2/Cyclin E1 complex; listed as 113): > 5000 nM
"O=C(O)c1ccc2c(-c3nc(N[C@H]4CCCNC4)ncc3C(F)(F)F)c[nH]c2c1 [Compound 306, 3-[2-[[(3S)-3-piperidyl]amino]-5-(trifluoromethyl)pyrimidin-4-yl]-1H-indole-6-Carboxylic acid]",20 to 200 nM,> 5000 nM,200 to 5000 nM,200 to 5000 nM,20 to 200 nM,100 to 1000 nM,IC50 ([1]; listed as 114): 20 to 200 nM; IC50 (CDK9/Cyclin T1 complex; listed as 114): 200 to 5000 nM; IC50 ([2]; listed as 114): 200 to 5000 nM; IC50 (CDK2/Cyclin E1 complex; listed as 114): 200 to 5000 nM
"O=c1[nH]cc(-c2ccc3c(-c4nc(N[C@H]5CCCNC5)ncc4C(F)(F)F)c[nH]c3c2)c(=O)[nH]1 [Compound 333, 5-[3-[2-[[(3S)-3-piperidyl]amino]-5-(trifluoromethyl)pyrimidin-4-yl]-1H-indol-6-yl]-1H-pyrimidine-2,4-dione]",< 20 nM,> 5000 nM,200 to 5000 nM,> 5000 nM,200 to 5000 nM,1000 to 5000 nM,IC50 ([1]; listed as 139): 20 to 200 nM; IC50 (CDK9/Cyclin T1 complex; listed as 139): > 5000 nM; IC50 ([2]; listed as 139): > 5000 nM; IC50 (CDK2/Cyclin E1 complex; listed as 139): > 5000 nM
"O=C(c1cccc(-c2ccc3c(-c4nc(N[C@H]5CCCNC5)ncc4C(F)(F)F)c[nH]c3c2)c1)N1CCCC1 [Compound 340, [3-[3-[2-[[(3S)-3-piperidyl]amino]-5-(trifluoromethyl)pyrimidin-4-yl]-1H-indol-6-yl]phenyl]-pyrrolidin-1-yl-methanone]",20 to 200 nM,200 to 5000 nM,200 to 5000 nM,200 to 5000 nM,200 to 5000 nM,1000 to 5000 nM,IC50 (CDK9/Cyclin T1 complex; listed as 140): > 5000 nM; IC50 ([2]; listed as 140): > 5000 nM; IC50 (CDK2/Cyclin E1 complex; listed as 140): > 5000 nM
